Square brackets hold non-standard residues; d marks the D form. Peptide text beside a SMILES is read from it. PEG24 = NCCOCCOCCOCCOCCOCCOCCOCCOCCOCCOCCOCCOCCOCCOCCOCCOCCOCCOCCOCCOCCOCCOCCOCCOCCC(=O)O; Sar = CNCC(=O)O
How the values were obtained:
[1] = tested on: complement activation in factor B-depleted human sera; format: biochemical
Experimental: Peptides were diluted to 0.77 mM in factor B-depleted human sera (Complement Technologies, Inc.) and incubated for 1 hour at 37° C. These peptides were then diluted with GVBS^++ to equal 2.5/s serum, of which 0.25 ml was combined with 0.4 ml of GVBS^++ and 0.1 ml of sensitized sheep red blood cells (RBCs) and again incubated for 1 hour at 37° C. The procedure was stopped by the addition of 4.0 ml of GVBS^−−, centrifuged for 5 minutes at 1,620×g, and the absorbance of the supernatants was read at 412 nm in a spectrophotometer. The percent lysis of each sample was standardized to that of the serum only control.
The final concentration of peptide in factor B-depleted serum was 0.77 mM. Each peptide was evaluated in triplicate and the mean values are reported. […] In the hemolytic assay, soluble peptides are standardized to water and insoluble peptides standardized to DMSO.
Polar Assortant peptides were serially diluted in undiluted factor B-depleted human sera (Complement Technologies, Inc.) and incubated for 1 hour at 37° C. Water, GVBS^++ and DMSO were included as controls. These peptides were then diluted with GVBS^++ to equal 2.5/s serum, of which 0.25 ml was combined with 0.4 ml of GVBS^++ and 0.1 ml of sensitized sheep red blood cells (RBCs) and again incubated for 1 hour at 37° C. The procedure was stopped by the addition of 4.0 ml of GVBS^−−, centrifuged for 5 minutes at 1,620×g, and the absorbance of the supernatants was read at 412 nm in a spectrophotometer. The percent lysis of each sample was standardized to that of the serum only control.
The final concentration of peptide in factor B-depleted serum was 0.77 mM. […] In the hemolytic assay, soluble peptides were standardized to water and insoluble peptides standardized to DMSO.
The final concentration of peptide in factor B-depleted serum was 0.77 mM. […] In the hemolytic assay, soluble peptides are standardized to water and insoluble peptides standardized to DMSO.

Solubility in water = format: physicochemical
[2] = Table 7, PEGylated and sarcosine/alanine substitution peptides
[3] = Table 5, sarcosine substitution peptides

| Compound | Hemolysis (%) [1] [%] | Solubility in water (Solubility in water; [2]) | Solubility in water (Solubility in water; [3]) | solubility in water / aqueous solutions (Solubility in water) |
| --- | --- | --- | --- | --- |
| CC[C@H](C)[C@H](N)C(=O)N[C@@H](C)C(=O)N[C@@H](CC(C)C)C(=O)N[C@H](C(=O)N[C@@H](CC(C)C)C(=O)N[C@@H](CCC(=O)O)C(=O)N(C)CC(=O)N[C@H](C(=O)N(C)CC(=O)N[C@@H](CS)C(=O)N[C@@H](CCC(N)=O)C(=O)N[C@@H](CCC(=O)O)C(=O)N[C@@H](CCCNC(=N)N)C(=O)N[C@@H](C)C(=O)N[C@@H](C)C(=O)O)[C@@H](C)CC)[C@@H](C)CC [PA-P7SarC9Sar, IALILE(Sar)I(Sar)CQERAA] (H-IALILE[Sar]I[Sar]CQERAA-OH) | 82.72 | Yes |  |  |
| CC[C@H](C)[C@H](N)C(=O)N[C@@H](C)C(=O)N[C@@H](CC(C)C)C(=O)N[C@H](C(=O)N[C@@H](CC(C)C)C(=O)N[C@@H](C)C(=O)N1CCC[C@H]1C(=O)N[C@H](C(=O)N[C@@H](CS)C(=O)N[C@@H](CS)C(=O)N[C@@H](CCC(N)=O)C(=O)N[C@@H](C)C(=O)N[C@@H](CCCNC(=N)N)C(=O)N[C@@H](C)C(=O)N[C@@H](C)C(=O)NCCOCCOCCOCCOCCOCCOCCOCCOCCOCCOCCOCCOCCOCCOCCOCCOCCOCCOCCOCCOCCOCCOCCOCCOCCC(=O)O)[C@@H](C)CC)[C@@H](C)CC [E6AE12A-dPEG24] (H-IALILAPICCQARAA[PEG24]-OH; N-terminus assumed) | 4.95 | Yes |  |  |
| CC[C@H](C)[C@H](N)C(=O)N[C@@H](C)C(=O)N[C@@H](CC(C)C)C(=O)N[C@H](C(=O)N[C@@H](CC(C)C)C(=O)N[C@@H](CCC(=O)O)C(=O)N1CCC[C@H]1C(=O)N[C@H](C(=O)N(C)CC(=O)N[C@@H](CCC(N)=O)C(=O)N[C@@H](CCC(=O)O)C(=O)N[C@@H](CCCNC(=N)N)C(=O)N[C@@H](C)C(=O)N[C@@H](C)C(=O)O)[C@@H](C)CC)[C@@H](C)CC [PA-C9SarD10] (H-IALILEPI[Sar]QERAA-OH) | 100.52 | Yes |  |  |
| CC[C@H](C)[C@H](N)C(=O)N(C)CC(=O)N[C@@H](CC(C)C)C(=O)N[C@H](C(=O)N[C@@H](CC(C)C)C(=O)N[C@@H](CCC(=O)O)C(=O)N1CCC[C@H]1C(=O)N[C@H](C(=O)N[C@@H](CS)C(=O)N[C@@H](CS)C(=O)N[C@@H](CCC(N)=O)C(=O)N[C@@H](CCC(=O)O)C(=O)N[C@@H](CCCNC(=N)N)C(=O)N[C@@H](C)C(=O)N[C@@H](C)C(=O)O)[C@@H](C)CC)[C@@H](C)CC [PA-A2Sar] (H-I[Sar]LILEPICCQERAA-OH; N-terminus and C-terminus assumed) | 37.72 |  | Yes |  |
| CC[C@H](C)[C@H](N)C(=O)N[C@@H](C)C(=O)N[C@@H](CC(C)C)C(=O)N[C@H](C(=O)N[C@@H](CC(C)C)C(=O)N(C)CC(=O)N1CCC[C@H]1C(=O)N[C@H](C(=O)N(C)CC(=O)N[C@@H](CS)C(=O)N[C@@H](CCC(N)=O)C(=O)N[C@@H](CCC(=O)O)C(=O)N[C@@H](CCCNC(=N)N)C(=O)N[C@@H](C)C(=O)N[C@@H](C)C(=O)O)[C@@H](C)CC)[C@@H](C)CC [Peptide E6SarC9Sar, IALIL(Sar)PI(Sar)CQERAA] (H-IALIL[Sar]PI[Sar]CQERAA-OH) | 6.21 | Yes |  |  |
| CC[C@H](C)[C@H](N)C(=O)N[C@@H](C)C(=O)N[C@@H](CC(C)C)C(=O)N[C@H](C(=O)N[C@@H](CC(C)C)C(=O)N[C@@H](CCC(=O)O)C(=O)N(C)CC(=O)N[C@H](C(=O)N[C@@H](CS)C(=O)N[C@@H](CS)C(=O)N(C)CC(=O)N[C@@H](CCC(=O)O)C(=O)N[C@@H](CCCNC(=N)N)C(=O)N[C@@H](C)C(=O)N[C@@H](C)C(=O)O)[C@@H](C)CC)[C@@H](C)CC [Peptide Q11SarP7Sar, IALILE(Sar)ICC(Sar)ERAA] (H-IALILE[Sar]ICC[Sar]ERAA-OH; N-terminus and C-terminus assumed) | 3.22 | Yes |  |  |
| CC[C@H](C)[C@H](N)C(=O)N[C@@H](C)C(=O)N[C@@H](CC(C)C)C(=O)N[C@H](C(=O)N[C@@H](CC(C)C)C(=O)N[C@@H](CCC(=O)O)C(=O)N1CCC[C@H]1C(=O)N[C@H](C(=O)N[C@@H](CS)C(=O)N[C@@H](CS)C(=O)N[C@@H](CCC(N)=O)C(=O)N[C@@H](CCC(=O)O)C(=O)N[C@@H](CCCNC(=N)N)C(=O)N(C)CC(=O)N[C@@H](C)C(=O)NCCOCCOCCOCCOCCOCCOCCOCCOCCOCCOCCOCCOCCOCCOCCOCCOCCOCCOCCOCCOCCOCCOCCOCCOCCC(=O)O)[C@@H](C)CC)[C@@H](C)CC [PA-A14Sar-dPEG24] | 3.68 | Yes |  |  |
| CC[C@H](C)[C@H](N)C(=O)N[C@@H](C)C(=O)N[C@@H](CC(C)C)C(=O)N[C@H](C(=O)N[C@@H](CC(C)C)C(=O)N[C@@H](CCC(=O)O)C(=O)N1CCC[C@H]1C(=O)N[C@H](C(=O)N(C)CC(=O)N[C@@H](CS)C(=O)N(C)CC(=O)N[C@@H](CCC(=O)O)C(=O)N[C@@H](CCCNC(=N)N)C(=O)N[C@@H](C)C(=O)N[C@@H](C)C(=O)O)[C@@H](C)CC)[C@@H](C)CC [Peptide Q11SarC9Sar] (H-IALILEPI[Sar]C[Sar]ERAA-OH) | 15.42 | Yes |  |  |
| CC[C@H](C)[C@H](N)C(=O)N[C@@H](C)C(=O)N[C@@H](CC(C)C)C(=O)N[C@H](C(=O)N[C@@H](CC(C)C)C(=O)N[C@@H](CCC(=O)O)C(=O)N(C)CC(=O)N[C@H](C(=O)N[C@@H](CS)C(=O)N[C@@H](CS)C(=O)N[C@@H](CCC(N)=O)C(=O)N[C@@H](CCC(=O)O)C(=O)N[C@@H](CCCNC(=N)N)C(=O)N[C@@H](C)C(=O)N[C@@H](C)C(=O)O)[C@@H](C)CC)[C@@H](C)CC [PA-P7Sar] (H-IALILE[Sar]ICCQERAA-OH; N-terminus and C-terminus assumed) | 3.01 |  | Yes | water soluble |
| CC[C@H](C)[C@H](N)C(=O)N[C@@H](C)C(=O)N[C@@H](CC(C)C)C(=O)N[C@H](C(=O)N[C@@H](CC(C)C)C(=O)N[C@@H](CCC(=O)O)C(=O)N1CCC[C@H]1C(=O)N[C@H](C(=O)N(C)CC(=O)N[C@@H](CS)C(=O)N[C@@H](CCC(N)=O)C(=O)N[C@@H](CCC(=O)O)C(=O)N(C)CC(=O)N[C@@H](C)C(=O)N[C@@H](C)C(=O)O)[C@@H](C)CC)[C@@H](C)CC [Peptide R13SarC9Sar] (H-IALILEPI[Sar]CQE[Sar]AA-OH) | 84.81 | No |  |  |
| CC[C@H](C)[C@H](N)C(=O)N[C@@H](C)C(=O)N[C@@H](CC(C)C)C(=O)N[C@H](C(=O)N[C@@H](CC(C)C)C(=O)N[C@@H](CCC(=O)O)C(=O)N1CCC[C@H]1C(=O)N[C@H](C(=O)N[C@@H](CS)C(=O)N[C@@H](CS)C(=O)N[C@@H](CCC(N)=O)C(=O)N[C@@H](CCC(=O)O)C(=O)N(C)CC(=O)N[C@@H](C)C(=O)N[C@@H](C)C(=O)NCCOCCOCCOCCOCCOCCOCCOCCOCCOCCOCCOCCOCCOCCOCCOCCOCCOCCOCCOCCOCCOCCOCCOCCOCCC(=O)O)[C@@H](C)CC)[C@@H](C)CC [PA-R13Sar-dPEG24] | 4.26 | Yes |  |  |
| CC[C@H](C)[C@H](N)C(=O)N[C@@H](C)C(=O)N[C@@H](CC(C)C)C(=O)N[C@H](C(=O)N[C@@H](CC(C)C)C(=O)N[C@@H](CCC(=O)O)C(=O)N1CCC[C@H]1C(=O)N[C@H](C(=O)N(C)CC(=O)N[C@@H](CS)C(=O)N[C@@H](CCC(N)=O)C(=O)N[C@@H](CCC(=O)O)C(=O)N[C@@H](CCCNC(=N)N)C(=O)N(C)CC(=O)N[C@@H](C)C(=O)O)[C@@H](C)CC)[C@@H](C)CC [Peptide A14SarC9Sar] (H-IALILEPI[Sar]CQER[Sar]A-OH) | 14.73 | No |  |  |
| CC[C@H](C)[C@H](N)C(=O)N[C@@H](C)C(=O)N(C)CC(=O)N[C@H](C(=O)N[C@@H](CC(C)C)C(=O)N[C@@H](CCC(=O)O)C(=O)N1CCC[C@H]1C(=O)N[C@H](C(=O)N[C@@H](CS)C(=O)N[C@@H](CS)C(=O)N[C@@H](CCC(N)=O)C(=O)N[C@@H](CCC(=O)O)C(=O)N[C@@H](CCCNC(=N)N)C(=O)N[C@@H](C)C(=O)N[C@@H](C)C(=O)O)[C@@H](C)CC)[C@@H](C)CC [PA-L3Sar] (H-IA[Sar]ILEPICCQERAA-OH; N-terminus and C-terminus assumed) | 87.36 |  | Yes |  |
